US12247022B2, “Combinations for treatment of NASH/NAFLD and related diseases” (Pfizer Inc., priority 2018, dated 2025)

Columns and labels:
Assay type in all cases: in vivo, rat
[1] = system: Western diet fed Sprague Dawley rats; experiment: Fasted plasma triglyceride (TG), Western diet fed rats, oral dosing; details: oral monotherapy, 4 hour fast, 2 hours post-dose
Description: (§1) A randomized, vehicle-controlled, 8-parallel arm study was conducted in male Sprague-Dawley rats (Charles River (Boston, MA)) to obtain circulating and hepatic TG levels. Standard laboratory conditions were used to house 96 rats (˜200 g); they were double housed and kept under 12:12-hour reverse light-dark schedule (lights off at 8:00 AM). Rats were randomized into chow or Western diet groups and dose groups upon arrival and were given a 14-day lead-in period on either standard rat chow or Western diet prior to the start of the study. Standard Laboratory Rodent chow diet, 5053, was from LabDiet (PMI, St Louis, Missouri). Western Diet, D12079Bi, was from Research Diets (New Brunswick, New Jersey).
For these studies, vehicle was prepared to make a 0.5% (wt/volume) of methyl cellulose (MC, Sigma Aldrich; 274429) in deionized water. The stock solutions with either Compound A (prepared from the tris salt) or Compound D were prepared with the respective compound to provide a concentration such that 10 ml of the solution would deliver the desired mg/kg dosage amount, where the average weight of the rats used was about 200 g.
Starting on Day 1 of the study, rats were dosed orally (10 mL/kg) with either vehicle control (0.5% MC (wt/volume %) in dionized water), low or high doses of Compound A (1 mg/kg or 10 mg/kg QD, respectively), low or high doses of Compound D (5 mg/kg or 30 mg/kg BID respectively), or co-administration of low doses (Compound A at 1 mg/kg QD and Compound D at 5 mg/kg BID), or co-administration of high doses (Compound A at 10 mg/kg QD and Compound D at 30 mg/kg BID)
Fasted plasma analytes: Blood for determining fasted plasma TG was collected after a 4 hour fast, 2 hours post-dose (2 hours into the dark cycle) via lateral tail vein, transferred to BD Microtainer tubes coated with K2EDTA (PN365974), and centrifuged at 4° C. The resulting plasma samples were then analyzed on a Siemens Chemistry XPT clinical analyzer (Malven, PA) using Siemens triglycerides 2 assay reagents (ref 10335892).

[2] = system: SREBP-1; experiment: Nuclear SREBP-1 localization in liver (Western blot, normalized to Histone 2B), Western diet fed rats; details: high dose (Compound A 10 mg/kg QD, Compound D 30 mg/kg BID); pooled liver samples per group
Description: as §1, with “Jersey). […]” for “Jersey).”
Nuclear and Membrane fractions were prepared by ultracentrifugation using standard methods from a portion of the pulverized liver samples, that were pooled per treatment group. Samples from the nuclear extract and the membrane fractions were analyzed by Western blotting for SREBP1. […] Nuclear SREBP1 levels were quantified using relative units and normalized to Histone 2B to control for sample loss during the nuclear fractionation and gel loading.

[3] = system: proprotein convertase subtilisin/kexin type 9 (PCSK9); experiment: Hepatic lipogenic gene expression (qPCR), Western diet fed rats: PCSK9; details: Actb housekeeping gene, Day 28 liver
Description: as §1
(§2) Starting on Day 1 of the study, rats were dosed orally (10 mL/kg) with either vehicle control (0.5% MC (wt/volume %) in dionized water), low or high doses of Compound A (1 mg/kg or 10 mg/kg QD, respectively), low or high doses of Compound D (5 mg/kg or 30 mg/kg BID respectively), or co-administration of low doses (Compound A at 1 mg/kg QD and Compound D at 5 mg/kg BID), or co-administration of high doses (Compound A at 10 mg/kg QD and Compound D at 30 mg/kg BID) […]
(§3) Another portion of the pulverized liver was processed and analyzed for lipogenic gene expression. Rat taqman probes against ACC1, FASN, SCD1, PCSK9 and SREBP-1c were all assessed using Actb as housekeeping gene on qPCR.

[4] = system: sterol regulatory element-binding protein 1c (SREBP-1c); experiment: Hepatic lipogenic gene expression (qPCR), Western diet fed rats: SREBP-1c; details: Actb housekeeping gene, Day 28 liver
Description: as §1, §2, §3

Structure (SMILES) | increase in fasted plasma TG, relative to vehicle administered Western diet fed rats ([1]; high dose (Compound A 10 mg/kg QD)) | increase in fasted plasma TG, relative to vehicle administered Western diet fed rats ([1]; low dose (Compound A 1 mg/kg QD)) | nuclear localization of SREBP-1, relative to vehicle treated Western diet fed rats [2] | reduction of fasted plasma TG, relative to vehicle administered Western diet fed rats ([1]; high dose (Compound D 30 mg/kg BID)) | reduction of fasted plasma TG, relative to vehicle administered Western diet fed rats ([1]; low dose (Compound D 5 mg/kg BID)) | hepatic PCSK9 gene expression relative to Western Diet fed and vehicle treated animals [3] | hepatic SREBP1 gene expression relative to Western Diet fed and vehicle treated animals [4]
COc1cc(C(=O)N2CCC3(CC2)CC(=O)c2c(cnn2C(C)C)C3)cc(-c2ccc(C(=O)O)cc2)n1 [Compound A, 4-(4-(1-isopropyl-7-oxo-1,4,6,7-tetrahydrospiro[indazole-5,4′-piperidine]-1′-carbonyl)-6-methoxypyridin-2-yl)benzoic acid] | 1.7 fold | 2.4 fold | increased nuclear localization of SREBP-1 | – | – | – | –
CCOc1cccnc1Oc1cncc(-c2ncc(C(=O)N[C@H]3CCOC3)cn2)c1 [Compound D, (S)-2-(5-((3-ethoxypyridin-2-yl)oxy)pyridin-3-yl)-N-(tetrahydrofuran-3-yl)pyrimidine-5-carboxamide] | – | – | reduced SREBP-1 nuclear localization | 35% | 20% | decreased expression | decreased expression
